Values quoted from earlier work as cited in patent publication US20070032554A1, “Treatment of stuttering and other communication disorders with norepinephrine reuptake inhibitors” (ELILILLY AND COMPANY a Corporation, priority 2003, published 2007).

Details: for side effects / tolerability: literature reports, treatment of stuttering; for effect on stuttering: literature reports in persons who stutter

| Structure (SMILES) | side effects / tolerability | effect on stuttering |
| --- | --- | --- |
| CN[C@H]1CC[C@@H](c2ccc(Cl)c(Cl)c2)c2ccccc21 [Sertraline] | a number of undesirable side effects |  |
| Cc1cc2c(s1)Nc1ccccc1N=C2N1CCN(C)CC1 [Olanzapine] | mostly limited to slight weight gain and drowsiness |  |
| Fc1ccc([C@@H]2CCNC[C@H]2COc2ccc3c(c2)OCO3)cc1 [Paroxetine] | a number of undesirable side effects |  |
| Cc1nc2n(c(=O)c1CCN1CCC(c3noc4cc(F)ccc34)CC1)CCCC2 [risperidone] | sedation was common | may be effective |
| O=C(CCCN1CCC(O)(c2ccc(Cl)cc2)CC1)c1ccc(F)cc1 [haloperidol] | not well tolerated | reduce the symptoms of stuttering |
